What all share (test): NCI tumour cell line growth inhibition, 48 h
The test system of assay [1] is A498 renal.
Assay [2] deals with A549 NSCLC.
The subject of assay [3] is ACHN renal.
Assay [4] has as its system CAKI-1 renal.
Assay [5] relates to NCI/ADR-RES ovarian.
The subject of assay [6] is OVCAR-4 ovarian.
Assay [7] has as its system PC-3 prostate.
The test system of assay [8] is SK-MEL-5 melanoma.
For assay [9], the system named is UACC-62 melanoma.

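Step 1: Grow cells in 96-well plates. Step 2: Expose to compound for 48 hours at 5 concentrations. Step 3: Interpolate endpoints linearly; if unreached, use highest concentration. Here, GI50 denotes the concentration required for 50% inhibition of growth. TGI: total growth inhibition.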 Some results are limits rather than exact numbers.

This note sets out measurements from PubChem BioAssay (NCI).

For `O=C(OCc1ccccc1)N1c2cc([N+](=O)[O-])ccc2C(=O)N2CCC[C@H]2C1O` (stereo partly specified), the TGI in assay [1], in [2], in assay [3], in assay [4], in assay [5] and in assay [6] was more than 100 µM in each case. Moreover, the TGI in [7], in [8] and in [9] was more than 100 µM in each case.

With `CC1CCC2(CC1)N=C1CCC(C)CC1C1(CCC(C)CC1)N2` (stereo unspecified), the TGI in assay [1], in assay [2], in [3], in assay [4], in assay [5] and in [6] was more than 100 µM throughout. Besides, the TGI in [7], in assay [8] and in assay [9] was more than 100 µM in each case.

In the case of `CC(=O)NC1=CC(=O)c2cc(C)cc(O)c2C1=O`, the TGI in assay [1] stood at 27.5 µM; in assay [2], 19 µM; in assay [3], 23 µM; in assay [4] it was 42.9 µM; in [5], 23.9 µM; in [6] it was 20.4 µM. Moreover, the results for the TGI in assay [7], in [8] and in assay [9] were 40.7 µM, 2.65 µM and 4.71 µM, respectively.

Regarding `C/C=C\C(CC(=O)NCCC1CN(C(=O)c2ccccc2)c2ccccc21)CC(=O)OC` (stereo unspecified), the TGI in [1], in [2], in assay [3], in [4], in assay [5] and in [6] was more than 100 µM each time. Moreover, the TGI in [7], in assay [8] and in assay [9] was more than 100 µM throughout.

With `COc1cc(C2S/C(=C/c3ccccc3)C(=O)N2c2cccc([N+](=O)[O-])c2)cc(OC)c1OC` (stereo unspecified), the TGI in assay [1], in assay [2], in assay [3], in assay [4], in assay [5] and in assay [6] was more than 100 µM in each case. Further, the TGI in assay [7], in assay [8] and in [9] was more than 100 µM each time.

With `CCOc1cc(C2SCC(=O)N2c2nc3cc4sc(N5C(=O)CSC5c5ccc(O)c(OCC)c5)nc4cc3s2)ccc1O` (stereo unspecified), the TGI in assay [1], in [2], in assay [3], in [4], in assay [5] and in [6] was more than 100 µM in each case. In addition, the TGI in assay [7], in [8] and in [9] was more than 100 µM in each case.

Turning to `CCOC(=O)C(=Cn1c(=S)[nH]c2ccc([N+](=O)[O-])cc21)C(=O)OCC`, the TGI in [1], in assay [2], in assay [3], in assay [4], in [5] and in [6] was more than 100 µM throughout. Further, the TGI in assay [7], in [8] and in assay [9] was more than 100 µM throughout.

Regarding `O=C1C(N=Nc2ccc(-c3nc4ccccc4[nH]3)cc2)NC(=S)N1c1ccccc1` (stereo unspecified), the TGI in [1], in [2], in [3], in assay [4], in assay [5] and in assay [6] was more than 100 µM in each case. For the same compound, the TGI in assay [7], in assay [8] and in [9] was more than 100 µM each time.

On to `CCC(C)C1(O)OC2CC3(C)OC(=CC3=O)/C(C)=C\C3OC(=O)C1(C)C32` (stereo unspecified), for which the TGI is 81.9 µM in [1]; more than 100 µM in assay [2]; 23.5 µM in [3]; 31.5 µM in assay [4]; more than 100 µM in assay [5]; more than 100 µM in [6]. The values for the TGI in assay [7], in assay [8] and in assay [9] were more than 100 µM, 23.1 µM and 35.3 µM, respectively.

Regarding `Nc1ccc(-n2c(=O)oc3ccc(Cl)cc3c2=O)c(Cl)c1`, the GI50 was 0.0372 µM in assay [1]; 0.234 µM in assay [2]; 0.169 µM in assay [3]; 0.077 µM in [4]; 0.172 µM in assay [5]; 0.111 µM in assay [6]. Further, the figures for the GI50 in assay [7], in assay [8] and in [9] were 0.264 µM, 0.048 µM and 0.0527 µM, respectively. Further, the TGI in assay [1] was 0.114 µM; in assay [2], more than 38.7 µM; in assay [3], 4.41 µM; in assay [4], 0.479 µM; in assay [5], 1.03 µM; in assay [6] it was more than 94.8 µM. Also, the TGI turned out to be 9.59 µM in assay [7], 0.136 µM in assay [8] and 0.22 µM in assay [9].

As for `O=c1[nH]c2ccccc2c2oc(-c3ccccc3)nc12`, the TGI in assay [1] was 59.5 µM; in [2], more than 100 µM; in assay [3], more than 100 µM; in assay [4], 34.4 µM; in assay [5], more than 100 µM; in [6], more than 100 µM. Also, the TGI in assay [7], in assay [8] and in assay [9] was more than 100 µM each time.

Take `Cn1ccc(C(=O)NCCCCCNC(=O)c2ccn(C)c(=O)c2O)c(O)c1=O`: the TGI in assay [1], in assay [2], in [3], in [4], in assay [5] and in assay [6] was more than 100 µM throughout. The TGI in [7], in [8] and in assay [9] was more than 100 µM each time.

Regarding `O=C(/C=C/c1ccccc1O)/C=C/c1ccccc1O`, the TGI in [1] came out at 4.18 µM; in assay [2], 6.38 µM; in assay [3], 3.35 µM; in assay [4], 3.21 µM; in [5], 4.88 µM; in [6], 7.7 µM. Also, the TGI turned out to be 3.38 µM in assay [7], 2.8 µM in assay [8] and 3.31 µM in assay [9].
